Test system: E. coli K5, bacterial growth
Test: E. coli K5 growth effect of capsule formation inhibitors, K5 capsule type, follow-up screen (AID 624061)
Details: stronger effect = lower value

CCOc1ccc(-c2cc(NC(=O)c3c(F)cccc3F)c(C(=O)O)s2)cc1
bacterial growth (at 100 µM): 109% | bacterial growth (growth, at 50 µM): 106%

Reference: PubChem BioAssay AID624061 (Southern Research Specialized Biocontainment Screening …, 2012)
